Laboratory results published in patent publication US6358885B1, “Substituted phenylheterocyclic herbicides” (Mississippi State University, priority 1992, dated 2002).

Experiments:
Assay in all cases: Test F preemergence/postemergence greenhouse plant response rating 0 to 100
Settings in all cases: 0 to 100 scale
field violet = type: in vivo, Viola arvensis
Excerpt: (§1) Compounds evaluated in this test were formulated in a non-phytoxic solvent and applied to the soil surface before plant seedlings emerged (preemergence application) and to plants that were in the one-to-four leaf stage (postemergence application). A sandy loam soil was used for the preemergence test while a mixture of sandy loam soil and greenhouse potting mix in a 60:40 ratio was used for the postemergence test. Test compounds were applied within approximately one day after planting seeds for the preemergence test. Plantings of these crops and weed species were adjusted to produce plants of appropriate size for the postemergence test. All plant species were grown using normal greenhouse practices. Crop and weed species include winter barley (Hordeum vulgare cv. ‘Igri’), blackgrass (Alopecurus myosuroides), chickweed (Stellaria media), downy brome (Bromus tectorum), field violet (Viola arvensis), galium (Galium aparine), green foxtail (Setaria viridis), kochia (Kochia scoparia), lambsquarters (Chenopodium album), speedwell (Veronica persica), rape (Brassica napus), ryegrass (Lolium multiflorum), sugar beet (Beta vulgaris cv. ‘USl’), sunflower (Helianthus annuus cv. ‘Russian Giant’), spring wheat (Triticum aestivum cv. ‘ERA’), winter wheat (Triticum aestivum cv. ‘Talent’), wild buckwheat (Polygonum convolvulus), wild mustard (Sinapis arvensis), wild oat (Avena fatua), and wild radish (Raphanus raphanistrum). Blackgrass, galium and wild oat were treated at two growth stages. […] Treated plants and untreated controls were maintained in a greenhouse for approximately 21 to 28 days, after which all treated plants were compared to untreated controls and visually evaluated. […] A dash response (-) means no test result.

spring wheat = type: in vivo, Triticum aestivum cv. ‘ERA’
Excerpt: as §1

chickweed = type: in vivo, Stellaria media
Excerpt: as §1

wild buckwheat = type: in vivo, Polygonum convolvulus
Excerpt: as §1

galium = type: in vivo, Galium aparine
Excerpt: as §1

blackgrass = type: in vivo, Alopecurus myosuroides
Excerpt: as §1

[1] = POSTEMERGENCE, Rate 4 g/ha, stage (1) two to three leaves
[2] = POSTEMERGENCE, Rate 4 g/ha, stage (2) approximately four leaves or initial tillering
[3] = POSTEMERGENCE, Rate 8 g/ha, stage (1) two to three leaves
[4] = POSTEMERGENCE, Rate 8 g/ha, stage (2) approximately four leaves or initial tillering
[5] = POSTEMERGENCE, Rate 16 g/ha, stage (1) two to three leaves
[6] = POSTEMERGENCE, Rate 16 g/ha, stage (2) approximately four leaves or initial tillering
[7] = POSTEMERGENCE, Rate 32 g/ha, stage (1) two to three leaves
[8] = POSTEMERGENCE, Rate 32 g/ha, stage (2) approximately four leaves or initial tillering
[9] = POSTEMERGENCE, Rate 64 g/ha, stage (1) two to three leaves
[10] = POSTEMERGENCE, Rate 64 g/ha, stage (2) approximately four leaves or initial tillering
[11] = POSTEMERGENCE, Rate 125 g/ha, stage (1) two to three leaves
[12] = POSTEMERGENCE, Rate 125 g/ha, stage (2) approximately four leaves or initial tillering
[13] = POSTEMERGENCE, Rate 250 g/ha, stage (1) two to three leaves
[14] = POSTEMERGENCE, Rate 250 g/ha, stage (2) approximately four leaves or initial tillering

C#CCOc1cc(-c2nn3c(c2Br)CCCC3)c(F)cc1Cl [Compound 26]
Field violet plant response rating (field violet; POSTEMERGENCE, Rate 4 g/ha): 100 | Field violet plant response rating (field violet; POSTEMERGENCE, Rate 8 g/ha): 100 | Field violet plant response rating (field violet; POSTEMERGENCE, Rate 16 g/ha): 100 | Field violet plant response rating (field violet; POSTEMERGENCE, Rate 32 g/ha): 100 | Field violet plant response rating (field violet; POSTEMERGENCE, Rate 64 g/ha): 100 | Field violet plant response rating (field violet; POSTEMERGENCE, Rate 125 g/ha): 100 | Field violet plant response rating (field violet; POSTEMERGENCE, Rate 250 g/ha): 100 | Field violet plant response rating (field violet; PREEMERGENCE, Rate 4 g/ha): 0 | Field violet plant response rating (field violet; PREEMERGENCE, Rate 8 g/ha): 0 | Field violet plant response rating (field violet; PREEMERGENCE, Rate 16 g/ha): 70 | Field violet plant response rating (field violet; PREEMERGENCE, Rate 32 g/ha): 100 | Field violet plant response rating (field violet; PREEMERGENCE, Rate 64 g/ha): 100 | Field violet plant response rating (field violet; PREEMERGENCE, Rate 125 g/ha): 100 | Field violet plant response rating (field violet; PREEMERGENCE, Rate 250 g/ha): 100 | Wheat (Spring) plant response rating (spring wheat; POSTEMERGENCE, Rate 4 g/ha): 0 | Wheat (Spring) plant response rating (spring wheat; POSTEMERGENCE, Rate 8 g/ha): 0 | Wheat (Spring) plant response rating (spring wheat; POSTEMERGENCE, Rate 16 g/ha): 0 | Wheat (Spring) plant response rating (spring wheat; POSTEMERGENCE, Rate 32 g/ha): 15 | Wheat (Spring) plant response rating (spring wheat; POSTEMERGENCE, Rate 64 g/ha): 15 | Wheat (Spring) plant response rating (spring wheat; POSTEMERGENCE, Rate 125 g/ha): 15 | Wheat (Spring) plant response rating (spring wheat; POSTEMERGENCE, Rate 250 g/ha): 20 | Wheat (Spring) plant response rating (spring wheat; PREEMERGENCE, Rate 4 g/ha): 0 | Wheat (Spring) plant response rating (spring wheat; PREEMERGENCE, Rate 8 g/ha): 0 | Wheat (Spring) plant response rating (spring wheat; PREEMERGENCE, Rate 16 g/ha): 0 | Wheat (Spring) plant response rating (spring wheat; PREEMERGENCE, Rate 32 g/ha): 0 | Wheat (Spring) plant response rating (spring wheat; PREEMERGENCE, Rate 64 g/ha): 0 | Wheat (Spring) plant response rating (spring wheat; PREEMERGENCE, Rate 125 g/ha): 15 | Wheat (Spring) plant response rating (spring wheat; PREEMERGENCE, Rate 250 g/ha): 20 | Chickweed plant response rating (chickweed; POSTEMERGENCE, Rate 4 g/ha): 30 | Chickweed plant response rating (chickweed; POSTEMERGENCE, Rate 8 g/ha): 40 | Chickweed plant response rating (chickweed; POSTEMERGENCE, Rate 16 g/ha): 100 | Chickweed plant response rating (chickweed; POSTEMERGENCE, Rate 32 g/ha): 90 | Chickweed plant response rating (chickweed; POSTEMERGENCE, Rate 64 g/ha): 100 | Chickweed plant response rating (chickweed; POSTEMERGENCE, Rate 125 g/ha): 100 | Chickweed plant response rating (chickweed; POSTEMERGENCE, Rate 250 g/ha): 100 | Chickweed plant response rating (chickweed; PREEMERGENCE, Rate 4 g/ha): 0 | Chickweed plant response rating (chickweed; PREEMERGENCE, Rate 8 g/ha): 0 | Chickweed plant response rating (chickweed; PREEMERGENCE, Rate 16 g/ha): 45 | Chickweed plant response rating (chickweed; PREEMERGENCE, Rate 32 g/ha): 50 | Chickweed plant response rating (chickweed; PREEMERGENCE, Rate 64 g/ha): 100 | Chickweed plant response rating (chickweed; PREEMERGENCE, Rate 125 g/ha): 100 | Chickweed plant response rating (chickweed; PREEMERGENCE, Rate 250 g/ha): 100 | Wild buckwheat plant response rating (wild buckwheat; POSTEMERGENCE, Rate 4 g/ha): 100 | Wild buckwheat plant response rating (wild buckwheat; POSTEMERGENCE, Rate 8 g/ha): 100 | Wild buckwheat plant response rating (wild buckwheat; POSTEMERGENCE, Rate 16 g/ha): 100 | Wild buckwheat plant response rating (wild buckwheat; POSTEMERGENCE, Rate 32 g/ha): 100 | Wild buckwheat plant response rating (wild buckwheat; POSTEMERGENCE, Rate 64 g/ha): 100 | Wild buckwheat plant response rating (wild buckwheat; POSTEMERGENCE, Rate 125 g/ha): 100 | Wild buckwheat plant response rating (wild buckwheat; POSTEMERGENCE, Rate 250 g/ha): 100 | Wild buckwheat plant response rating (wild buckwheat; PREEMERGENCE, Rate 4 g/ha): 0 | Wild buckwheat plant response rating (wild buckwheat; PREEMERGENCE, Rate 8 g/ha): 0 | Wild buckwheat plant response rating (wild buckwheat; PREEMERGENCE, Rate 16 g/ha): 30 | Wild buckwheat plant response rating (wild buckwheat; PREEMERGENCE, Rate 32 g/ha): 100 | Wild buckwheat plant response rating (wild buckwheat; PREEMERGENCE, Rate 64 g/ha): 100 | Wild buckwheat plant response rating (wild buckwheat; PREEMERGENCE, Rate 125 g/ha): 100 | Wild buckwheat plant response rating (wild buckwheat; PREEMERGENCE, Rate 250 g/ha): 100 | Galium (1) plant response rating (galium; [1]): 0 | Galium (2) plant response rating (galium; [2]): 50 | Galium (1) plant response rating (galium; [3]): 0 | Galium (2) plant response rating (galium; [4]): 50 | Galium (1) plant response rating (galium; [5]): 30 | Galium (2) plant response rating (galium; [6]): 100 | Galium (1) plant response rating (galium; [7]): 50 | Galium (2) plant response rating (galium; [8]): 60 | Galium (1) plant response rating (galium; [9]): 100 | Galium (2) plant response rating (galium; [10]): 100 | Galium (1) plant response rating (galium; [11]): 100 | Galium (2) plant response rating (galium; [12]): 100 | Galium (1) plant response rating (galium; [13]): 100 | Galium (2) plant response rating (galium; [14]): 100 | Galium (1) plant response rating (galium; PREEMERGENCE, Rate 4 g/ha, Galium (1)): 0 | Galium (2) plant response rating (galium; PREEMERGENCE, Rate 4 g/ha, Galium (2)): 0 | Galium (1) plant response rating (galium; PREEMERGENCE, Rate 8 g/ha, Galium (1)): 0 | Galium (2) plant response rating (galium; PREEMERGENCE, Rate 8 g/ha, Galium (2)): 20 | Galium (1) plant response rating (galium; PREEMERGENCE, Rate 16 g/ha, Galium (1)): 0 | Galium (2) plant response rating (galium; PREEMERGENCE, Rate 16 g/ha, Galium (2)): 40 | Galium (1) plant response rating (galium; PREEMERGENCE, Rate 32 g/ha, Galium (1)): 100 | Galium (2) plant response rating (galium; PREEMERGENCE, Rate 32 g/ha, Galium (2)): 100 | Galium (1) plant response rating (galium; PREEMERGENCE, Rate 64 g/ha, Galium (1)): 100 | Galium (2) plant response rating (galium; PREEMERGENCE, Rate 64 g/ha, Galium (2)): 100 | Galium (1) plant response rating (galium; PREEMERGENCE, Rate 125 g/ha, Galium (1)): 100 | Galium (2) plant response rating (galium; PREEMERGENCE, Rate 125 g/ha, Galium (2)): 100 | Galium (1) plant response rating (galium; PREEMERGENCE, Rate 250 g/ha, Galium (1)): 100 | Galium (2) plant response rating (galium; PREEMERGENCE, Rate 250 g/ha, Galium (2)): 100 | Blackgrass (1) plant response rating (blackgrass; [1]): 0 | Blackgrass (2) plant response rating (blackgrass; [2]): 0 | Blackgrass (1) plant response rating (blackgrass; [3]): 0 | Blackgrass (2) plant response rating (blackgrass; [4]): 0 | Blackgrass (1) plant response rating (blackgrass; [5]): 0 | Blackgrass (2) plant response rating (blackgrass; [6]): 0 | Blackgrass (1) plant response rating (blackgrass; [7]): 0 | Blackgrass (2) plant response rating (blackgrass; [8]): 0 | Blackgrass (1) plant response rating (blackgrass; [9]): 0 | Blackgrass (2) plant response rating (blackgrass; [10]): 10 | Blackgrass (1) plant response rating (blackgrass; [11]): 10 | Blackgrass (2) plant response rating (blackgrass; [12]): 10 | Blackgrass (1) plant response rating (blackgrass; [13]): 30 | Blackgrass (2) plant response rating (blackgrass; [14]): 15 | Blackgrass (1) plant response rating (blackgrass; PREEMERGENCE, Rate 4 g/ha, Blackgrass (1)): 0 | Blackgrass (2) plant response rating (blackgrass; PREEMERGENCE, Rate 4 g/ha, Blackgrass (2)): 0 | Blackgrass (1) plant response rating (blackgrass; PREEMERGENCE, Rate 8 g/ha, Blackgrass (1)): 0 | Blackgrass (2) plant response rating (blackgrass; PREEMERGENCE, Rate 8 g/ha, Blackgrass (2)): 0 | Blackgrass (1) plant response rating (blackgrass; PREEMERGENCE, Rate 16 g/ha, Blackgrass (1)): 0 | Blackgrass (2) plant response rating (blackgrass; PREEMERGENCE, Rate 16 g/ha, Blackgrass (2)): 0 | Blackgrass (1) plant response rating (blackgrass; PREEMERGENCE, Rate 32 g/ha, Blackgrass (1)): 0 | Blackgrass (2) plant response rating (blackgrass; PREEMERGENCE, Rate 32 g/ha, Blackgrass (2)): 0 | Blackgrass (1) plant response rating (blackgrass; PREEMERGENCE, Rate 64 g/ha, Blackgrass (1)): 0 | Blackgrass (2) plant response rating (blackgrass; PREEMERGENCE, Rate 64 g/ha, Blackgrass (2)): 0 | Blackgrass (1) plant response rating (blackgrass; PREEMERGENCE, Rate 125 g/ha, Blackgrass (1)): 20 | Blackgrass (2) plant response rating (blackgrass; PREEMERGENCE, Rate 125 g/ha, Blackgrass (2)): 40 | Blackgrass (1) plant response rating (blackgrass; PREEMERGENCE, Rate 250 g/ha, Blackgrass (1)): 40
